According to PubChem BioAssay (NCI):
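1) Cells in 96-well plates. 2) Compound, 48 h, 5 concentrations. 3) Linear interpolation between surrounding doses. 4) Unreached endpoint = highest concentration. GI50: concentration for 50% inhibition of growth. TGI: total growth inhibition.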

How the values were obtained:
Test in all cases: NCI anticancer screen, dose series, 48 h
786-0 renal = tested on: 786-0 renal
A498 renal = tested on: A498 renal
A549 NSCLC = tested on: A549 NSCLC
ACHN renal = tested on: ACHN renal
BT-549 breast = tested on: BT-549 breast
CAKI-1 renal = tested on: CAKI-1 renal
COLO 205 colon = tested on: COLO 205 colon
DU-145 prostate = tested on: DU-145 prostate
HCC-2998 colon = tested on: HCC-2998 colon
HCT-116 colon = tested on: HCT-116 colon
HCT-15 colon = tested on: HCT-15 colon
HOP-62 NSCLC = tested on: HOP-62 NSCLC
HOP-92 NSCLC = tested on: HOP-92 NSCLC
HS 578T breast = tested on: HS 578T breast
HT29 colon = tested on: HT29 colon
IGROV1 ovarian = tested on: IGROV1 ovarian
KM12 colon = tested on: KM12 colon
LOX IMVI melanoma = tested on: LOX IMVI melanoma
M14 melanoma = tested on: M14 melanoma
MALME-3M melanoma = tested on: MALME-3M melanoma
MCF7 breast = tested on: MCF7 breast
MDA-MB-231 breast = tested on: MDA-MB-231 breast
MDA-MB-468 breast = tested on: MDA-MB-468 breast
NCI-H226 lung = tested on: NCI-H226 lung
NCI-H23 lung = tested on: NCI-H23 lung
NCI-H460 lung = tested on: NCI-H460 lung
NCI-H522 lung = tested on: NCI-H522 lung
OVCAR-4 ovarian = tested on: OVCAR-4 ovarian
OVCAR-5 ovarian = tested on: OVCAR-5 ovarian
OVCAR-8 ovarian = tested on: OVCAR-8 ovarian
PC-3 prostate = tested on: PC-3 prostate
RPMI-8226 leukemia = tested on: RPMI-8226 leukemia
RXF 393 renal = tested on: RXF 393 renal
SF-268 CNS = tested on: SF-268 CNS
SF-295 CNS = tested on: SF-295 CNS
SF-539 CNS = tested on: SF-539 CNS
SK-MEL-2 melanoma = tested on: SK-MEL-2 melanoma
SK-OV-3 ovarian = tested on: SK-OV-3 ovarian
SN12C renal = tested on: SN12C renal
SNB-19 CNS = tested on: SNB-19 CNS
SNB-75 CNS = tested on: SNB-75 CNS
T-47D breast = tested on: T-47D breast
TK-10 renal = tested on: TK-10 renal
U251 CNS = tested on: U251 CNS
UACC-62 melanoma = tested on: UACC-62 melanoma

## COc1cc(/C=C/C(=O)c2nnn(-c3ccc(Cl)cc3)c2C)cc(OC)c1OC
786-0 renal
  GI50: 8.67 µM
  TGI: 62 µM
A498 renal
  GI50: > 100 µM
  TGI: > 100 µM
A549 NSCLC
  GI50: 6.11 µM
  TGI: > 100 µM
ACHN renal
  GI50: 5.82 µM
  TGI: > 100 µM
BT-549 breast
  GI50: 4.23 µM
  TGI: 84.3 µM
CAKI-1 renal
  GI50: 4.46 µM
  TGI: > 100 µM
COLO 205 colon
  GI50: > 100 µM
  TGI: > 100 µM
DU-145 prostate
  GI50: 3.62 µM
  TGI: > 100 µM
HCC-2998 colon
  GI50: > 100 µM
  TGI: > 100 µM
HCT-116 colon
  GI50: 3.55 µM
  TGI: > 100 µM
HCT-15 colon
  GI50: 3.23 µM
  TGI: > 100 µM
HOP-62 NSCLC
  GI50: 11 µM
  TGI: > 100 µM
HOP-92 NSCLC
  GI50: 2.55 µM
  TGI: 23.6 µM
HS 578T breast
  GI50: 5.47 µM
  TGI: > 100 µM
HT29 colon
  GI50: 4.1 µM
  TGI: > 100 µM
IGROV1 ovarian
  GI50: > 100 µM
  TGI: > 100 µM
KM12 colon
  GI50: 8.53 µM
  TGI: > 100 µM
LOX IMVI melanoma
  GI50: 3.06 µM
  TGI: > 100 µM
M14 melanoma
  GI50: 3.59 µM
  TGI: > 100 µM
MALME-3M melanoma
  GI50: 7.35 µM
  TGI: > 100 µM
MCF7 breast
  GI50: 3.23 µM
  TGI: > 100 µM
MDA-MB-231 breast
  GI50: 3.48 µM
  TGI: > 100 µM
MDA-MB-468 breast
  GI50: 3.38 µM
  TGI: > 100 µM
NCI-H226 lung
  GI50: 7.53 µM
  TGI: > 100 µM
NCI-H23 lung
  GI50: 6.2 µM
  TGI: > 100 µM
NCI-H460 lung
  GI50: 3.59 µM
  TGI: > 100 µM
NCI-H522 lung
  GI50: 4.06 µM
  TGI: > 100 µM
OVCAR-4 ovarian
  GI50: 4.25 µM
  TGI: > 100 µM
OVCAR-5 ovarian
  GI50: > 100 µM
  TGI: > 100 µM
OVCAR-8 ovarian
  GI50: 4.15 µM
  TGI: > 100 µM
PC-3 prostate
  GI50: 3.53 µM
  TGI: > 100 µM
RPMI-8226 leukemia
  GI50: 2.22 µM
  TGI: > 100 µM
RXF 393 renal
  GI50: 6.39 µM
  TGI: > 100 µM
SF-268 CNS
  GI50: 20.9 µM
  TGI: > 100 µM
SF-295 CNS
  GI50: 41.4 µM
  TGI: > 100 µM
SF-539 CNS
  GI50: > 100 µM
  TGI: > 100 µM
SK-MEL-2 melanoma
  GI50: > 100 µM
  TGI: > 100 µM
SK-OV-3 ovarian
  GI50: > 100 µM
  TGI: > 100 µM
SN12C renal
  GI50: 4.15 µM
  TGI: > 100 µM
SNB-19 CNS
  GI50: 14.7 µM
  TGI: > 100 µM
SNB-75 CNS
  GI50: 2.83 µM
  TGI: > 100 µM
T-47D breast
  GI50: > 100 µM
  TGI: > 100 µM
TK-10 renal
  GI50: > 100 µM
  TGI: > 100 µM
U251 CNS
  GI50: 4.1 µM
  TGI: > 100 µM
UACC-62 melanoma
  GI50: 5.59 µM
  TGI: > 100 µM
